Data taken from publication PMC8632988, “Inhibition of SYK and cSrc kinases can protect bone and cartilage in preclinical models of osteoarthritis and rheumatoid arthritis” (Scientific Reports, 2021).

Tests used:
Assay in all cases: Kinase selectivity profile assay
Format in all cases: biochemical
MEKK1 = biological target: T1, MEKK1 (Homo sapiens, UniProt Q13233); conditions: 500 nM; relative to DMSO; read-out: Residual enzymatic activity
T1 construct: purchased Reaction Biology Corporation
Summary of the method: (§1)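 Radiometric kinase assay run by a standard protocol. Unbound phosphate was removed by washing filters in phosphoric acid, and product radioactivity gave percent remaining kinase activity versus DMSO vehicle reactions. Run in duplicate.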

ROCK2 = biological target: T2, ROCK2 (Homo sapiens, UniProt O75116); conditions: 500 nM; relative to DMSO; read-out: Residual enzymatic activity
T2 construct: purchased Reaction Biology Corporation
Summary of the method: as §1

TYK2 = biological target: T3, TYK2 (Homo sapiens, UniProt P29597); conditions: 500 nM; relative to DMSO; read-out: Residual enzymatic activity
T3 construct: purchased Reaction Biology Corporation
Summary of the method: as §1

DAPK2 = biological target: T4, DAPK2 (Homo sapiens, UniProt Q9UIK4); conditions: 500 nM; relative to DMSO; read-out: Residual enzymatic activity
T4 construct: purchased Reaction Biology Corporation
Summary of the method: as §1

TESK1 = biological target: T5, TESK1 (Homo sapiens, UniProt Q15569); conditions: 500 nM; relative to DMSO; read-out: Residual enzymatic activity
T5 construct: purchased Reaction Biology Corporation
Summary of the method: as §1

CAMKK2 = biological target: T6, CAMKK2 (Homo sapiens, UniProt Q96RR4); conditions: 500 nM; relative to DMSO; read-out: Residual enzymatic activity
T6 construct: purchased Reaction Biology Corporation
Summary of the method: as §1

HCK = biological target: T7, HCK (Homo sapiens, UniProt P08631); conditions: for remaining activity at 0.5 µM: 500 nM, relative to DMSO, read-out: Residual enzymatic activity
T7 construct: purchased Reaction Biology Corporation (assay service)
Summary of the method: as §1

NLK = biological target: T8, NLK (Homo sapiens, UniProt Q9UBE8); conditions: 500 nM; relative to DMSO; read-out: Residual enzymatic activity
T8 construct: purchased Reaction Biology Corporation
Summary of the method: as §1

MST2/STK3 = biological target: T9, MST2/STK3 (Homo sapiens, UniProt Q13188); conditions: 500 nM; relative to DMSO; read-out: Residual enzymatic activity
T9 construct: purchased Reaction Biology Corporation
Summary of the method: as §1

MST1/STK4 = biological target: T10, MST1/STK4 (Homo sapiens, UniProt Q13043); conditions: 500 nM; relative to DMSO; read-out: Residual enzymatic activity
T10 construct: purchased Reaction Biology Corporation
Summary of the method: as §1

LOK/STK10 = biological target: T11, LOK/STK10 (Homo sapiens, UniProt O94804); conditions: 500 nM; relative to DMSO; read-out: Residual enzymatic activity
T11 construct: purchased Reaction Biology Corporation
Summary of the method: as §1

FLT1/VEGFR1 = biological target: T12, FLT1/VEGFR1 (Homo sapiens, UniProt P17948); conditions: 500 nM, relative to DMSO; for remaining activity at 0.5 µM: read-out: Residual enzymatic activity
T12 construct: purchased Reaction Biology Corporation
Summary of the method: as §1

CK1epsilon = biological target: T13, CK1epsilon (Homo sapiens, UniProt P49674); conditions: 500 nM; relative to DMSO; read-out: Residual enzymatic activity
T13 construct: purchased Reaction Biology Corporation
Summary of the method: as §1

PKCg = biological target: T14, PKCg (Homo sapiens, UniProt P05129); conditions: 500 nM; relative to DMSO; read-out: Residual enzymatic activity
T14 construct: purchased Reaction Biology Corporation
Summary of the method: as §1

PDK1/PDPK1 = biological target: T15, PDK1/PDPK1 (Homo sapiens, UniProt O15530); conditions: 500 nM; relative to DMSO; read-out: Residual enzymatic activity
T15 construct: purchased Reaction Biology Corporation
Summary of the method: as §1

ERBB4/HER4 = biological target: T16, ERBB4/HER4 (Homo sapiens, UniProt Q15303); conditions: 500 nM; relative to DMSO; read-out: Residual enzymatic activity
T16 construct: purchased Reaction Biology Corporation
Summary of the method: as §1

STK22D/TSSK1 = biological target: T17, STK22D/TSSK1 (Homo sapiens, UniProt Q9BXA7); conditions: for remaining activity at 0.5 µM: 500 nM, relative to DMSO, read-out: Residual enzymatic activity
T17 construct: purchased Reaction Biology Corporation (Malvern, PA, USA)
T17 sequence (Q9BXA7 1-367): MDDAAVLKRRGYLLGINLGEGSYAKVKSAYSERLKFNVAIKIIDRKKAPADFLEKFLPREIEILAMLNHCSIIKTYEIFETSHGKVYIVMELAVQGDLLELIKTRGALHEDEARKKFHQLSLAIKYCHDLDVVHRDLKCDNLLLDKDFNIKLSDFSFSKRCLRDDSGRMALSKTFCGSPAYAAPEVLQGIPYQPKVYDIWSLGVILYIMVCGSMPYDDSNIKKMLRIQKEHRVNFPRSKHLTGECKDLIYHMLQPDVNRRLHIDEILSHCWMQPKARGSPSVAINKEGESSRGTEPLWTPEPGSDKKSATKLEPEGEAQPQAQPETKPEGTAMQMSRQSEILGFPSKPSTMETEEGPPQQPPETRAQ
Summary of the method: as §1

RIPK3 = biological target: T18, RIPK3 (Homo sapiens, UniProt Q9Y572); conditions: 500 nM; relative to DMSO; read-out: Residual enzymatic activity
T18 construct: purchased Reaction Biology Corporation
Summary of the method: as §1

IR = biological target: T19, IR (Homo sapiens, UniProt P06213); conditions: 500 nM; relative to DMSO; read-out: Residual enzymatic activity
T19 construct: purchased Reaction Biology Corporation
Summary of the method: as §1

CDK1/cyclin A = biological target: T20, CDK1/cyclin A (Homo sapiens, UniProt P06493); conditions: 500 nM; relative to DMSO; read-out: Residual enzymatic activity
T20 construct: purchased Reaction Biology Corporation
Summary of the method: as §1

GCK/MAP4K2 = biological target: T21, GCK/MAP4K2 (Homo sapiens, UniProt Q12851); conditions: 500 nM; relative to DMSO; read-out: Residual enzymatic activity
T21 construct: purchased Reaction Biology Corporation
Summary of the method: as §1

WNK3 = biological target: T22, WNK3 (Homo sapiens, UniProt Q9BYP7); conditions: 500 nM; relative to DMSO; read-out: Residual enzymatic activity
T22 construct: purchased Reaction Biology Corporation
Summary of the method: as §1

CK1d = biological target: T23, CK1d (Homo sapiens, UniProt P48730); conditions: 500 nM; relative to DMSO; read-out: Residual enzymatic activity
T23 construct: purchased Reaction Biology Corporation
Summary of the method: as §1

SSTK/TSSK6 = biological target: T24, SSTK/TSSK6 (Homo sapiens, UniProt Q9BXA6); conditions: 500 nM; relative to DMSO; read-out: Residual enzymatic activity
T24 construct: purchased Reaction Biology Corporation
Summary of the method: as §1

LYN = biological target: T25, LYN (Homo sapiens, UniProt P07948); conditions: for remaining activity at 0.5 µM: 500 nM, relative to DMSO, read-out: Residual enzymatic activity
T25 construct: purchased Reaction Biology Corporation (assay service)
Summary of the method: as §1

IRR/INSRR = biological target: T26, IRR/INSRR (Homo sapiens, UniProt P14616); conditions: 500 nM; relative to DMSO; read-out: Residual enzymatic activity
T26 construct: purchased Reaction Biology Corporation
Summary of the method: as §1

BRAF = biological target: T27, BRAF (Homo sapiens, UniProt P15056); conditions: 500 nM; relative to DMSO; read-out: Residual enzymatic activity
T27 construct: purchased Reaction Biology Corporation
Summary of the method: as §1

SGK2 = biological target: T28, SGK2 (Homo sapiens, UniProt Q9HBY8); conditions: 500 nM; relative to DMSO; read-out: Residual enzymatic activity
T28 construct: purchased Reaction Biology Corporation
Summary of the method: as §1

CAMKK1 = biological target: T29, CAMKK1 (Homo sapiens, UniProt Q8N5S9); conditions: 500 nM; relative to DMSO; read-out: Residual enzymatic activity
T29 construct: purchased Reaction Biology Corporation
Summary of the method: as §1

ERK1 = biological target: T30, ERK1 (Homo sapiens, UniProt P27361); conditions: 500 nM; relative to DMSO; read-out: Residual enzymatic activity
T30 construct: purchased Reaction Biology Corporation
Summary of the method: as §1

LATS1 = biological target: T31, LATS1 (Homo sapiens, UniProt O95835); conditions: 500 nM; relative to DMSO; read-out: Residual enzymatic activity
T31 construct: purchased Reaction Biology Corporation
Summary of the method: as §1

Aurora B = biological target: T32, Aurora B (Homo sapiens, UniProt Q96GD4); conditions: 500 nM; relative to DMSO; read-out: Residual enzymatic activity
T32 construct: purchased Reaction Biology Corporation
Summary of the method: as §1

CK1g2 = biological target: T33, CK1g2 (Homo sapiens, UniProt P78368); conditions: 500 nM; relative to DMSO; read-out: Residual enzymatic activity
T33 construct: purchased Reaction Biology Corporation
Summary of the method: as §1

GSK3a = biological target: T34, GSK3a (Homo sapiens, UniProt P49840); conditions: 500 nM; relative to DMSO; read-out: Residual enzymatic activity
T34 construct: purchased Reaction Biology Corporation
Summary of the method: as §1

SNARK/NUAK2 = biological target: T35, SNARK/NUAK2 (Homo sapiens, UniProt Q9H093); conditions: 500 nM; relative to DMSO; read-out: Residual enzymatic activity
T35 construct: purchased Reaction Biology Corporation
Summary of the method: as §1

[1] = 10-dose mode, threefold serial dilution from 10 μM

T12 sequence (P17948 27-1338): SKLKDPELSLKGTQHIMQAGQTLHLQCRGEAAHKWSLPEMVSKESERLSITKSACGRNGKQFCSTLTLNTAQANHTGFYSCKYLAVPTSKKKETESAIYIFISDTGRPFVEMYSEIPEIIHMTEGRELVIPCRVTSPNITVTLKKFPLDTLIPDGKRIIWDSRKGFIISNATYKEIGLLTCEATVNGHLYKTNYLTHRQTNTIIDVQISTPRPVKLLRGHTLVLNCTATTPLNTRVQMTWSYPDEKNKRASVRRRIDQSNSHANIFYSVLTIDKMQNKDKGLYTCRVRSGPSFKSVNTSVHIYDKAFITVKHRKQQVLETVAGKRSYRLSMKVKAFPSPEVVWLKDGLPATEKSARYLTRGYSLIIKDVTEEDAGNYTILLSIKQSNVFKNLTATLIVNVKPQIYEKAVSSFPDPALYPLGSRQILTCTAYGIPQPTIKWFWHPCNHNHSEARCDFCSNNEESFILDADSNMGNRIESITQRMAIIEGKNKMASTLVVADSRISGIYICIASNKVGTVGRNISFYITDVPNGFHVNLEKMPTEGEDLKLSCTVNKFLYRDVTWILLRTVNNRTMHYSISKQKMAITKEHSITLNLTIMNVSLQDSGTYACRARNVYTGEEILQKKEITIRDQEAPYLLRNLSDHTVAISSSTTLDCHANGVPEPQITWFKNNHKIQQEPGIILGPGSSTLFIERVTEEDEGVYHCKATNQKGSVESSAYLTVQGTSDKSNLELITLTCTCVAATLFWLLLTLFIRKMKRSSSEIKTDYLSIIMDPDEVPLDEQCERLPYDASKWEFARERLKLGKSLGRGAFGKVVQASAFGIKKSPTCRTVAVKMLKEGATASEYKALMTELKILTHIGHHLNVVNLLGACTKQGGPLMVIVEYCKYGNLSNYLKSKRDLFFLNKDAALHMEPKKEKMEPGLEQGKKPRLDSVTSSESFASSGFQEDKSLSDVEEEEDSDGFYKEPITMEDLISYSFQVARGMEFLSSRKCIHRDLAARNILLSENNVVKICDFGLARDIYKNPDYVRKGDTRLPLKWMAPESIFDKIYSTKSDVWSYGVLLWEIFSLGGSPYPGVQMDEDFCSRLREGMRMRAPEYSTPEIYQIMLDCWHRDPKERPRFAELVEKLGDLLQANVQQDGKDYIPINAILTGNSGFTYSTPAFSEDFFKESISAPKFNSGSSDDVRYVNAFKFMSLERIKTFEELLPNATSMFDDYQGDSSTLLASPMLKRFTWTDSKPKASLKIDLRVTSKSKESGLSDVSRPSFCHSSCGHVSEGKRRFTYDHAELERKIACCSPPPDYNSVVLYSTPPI
T25 sequence (P07948 whole entry): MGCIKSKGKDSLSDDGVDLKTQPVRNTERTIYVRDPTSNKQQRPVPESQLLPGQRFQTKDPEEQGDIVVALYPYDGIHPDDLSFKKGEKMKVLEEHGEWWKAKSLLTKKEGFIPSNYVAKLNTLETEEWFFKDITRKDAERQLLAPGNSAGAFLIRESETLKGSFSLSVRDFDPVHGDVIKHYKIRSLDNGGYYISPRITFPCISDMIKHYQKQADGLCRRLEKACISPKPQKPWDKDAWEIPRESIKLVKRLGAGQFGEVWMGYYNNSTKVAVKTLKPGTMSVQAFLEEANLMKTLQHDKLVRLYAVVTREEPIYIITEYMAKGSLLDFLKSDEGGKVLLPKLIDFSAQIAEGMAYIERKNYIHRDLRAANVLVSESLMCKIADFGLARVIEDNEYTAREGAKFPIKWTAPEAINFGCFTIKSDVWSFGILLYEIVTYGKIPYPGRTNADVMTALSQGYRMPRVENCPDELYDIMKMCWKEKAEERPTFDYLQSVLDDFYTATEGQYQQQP
T7 sequence (P08631 whole entry): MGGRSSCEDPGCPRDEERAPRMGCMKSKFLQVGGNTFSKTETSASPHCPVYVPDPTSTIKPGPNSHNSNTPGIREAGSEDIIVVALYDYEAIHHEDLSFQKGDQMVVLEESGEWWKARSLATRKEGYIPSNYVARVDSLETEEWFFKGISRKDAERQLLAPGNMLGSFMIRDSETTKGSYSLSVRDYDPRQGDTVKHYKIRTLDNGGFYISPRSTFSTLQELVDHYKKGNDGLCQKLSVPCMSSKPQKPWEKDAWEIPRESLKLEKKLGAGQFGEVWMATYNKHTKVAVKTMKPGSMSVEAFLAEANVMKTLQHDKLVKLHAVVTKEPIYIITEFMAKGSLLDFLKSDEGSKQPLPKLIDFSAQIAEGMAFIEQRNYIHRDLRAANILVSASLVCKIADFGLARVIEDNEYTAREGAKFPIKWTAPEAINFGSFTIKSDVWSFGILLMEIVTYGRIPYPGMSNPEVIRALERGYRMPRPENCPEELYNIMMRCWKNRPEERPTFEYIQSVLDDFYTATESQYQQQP
T28 sequence (Q9HBY8 whole entry): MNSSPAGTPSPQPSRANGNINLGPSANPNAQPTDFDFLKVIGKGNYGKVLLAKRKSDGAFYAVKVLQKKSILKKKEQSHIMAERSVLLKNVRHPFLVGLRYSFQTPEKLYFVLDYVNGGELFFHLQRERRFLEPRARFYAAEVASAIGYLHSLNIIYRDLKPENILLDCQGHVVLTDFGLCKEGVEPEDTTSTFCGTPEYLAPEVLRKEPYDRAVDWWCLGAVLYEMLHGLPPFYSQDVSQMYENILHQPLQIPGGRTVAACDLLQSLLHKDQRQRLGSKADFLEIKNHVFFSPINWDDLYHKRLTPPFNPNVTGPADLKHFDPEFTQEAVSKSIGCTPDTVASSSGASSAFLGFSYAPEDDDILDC
T20 sequence (P06493 whole entry): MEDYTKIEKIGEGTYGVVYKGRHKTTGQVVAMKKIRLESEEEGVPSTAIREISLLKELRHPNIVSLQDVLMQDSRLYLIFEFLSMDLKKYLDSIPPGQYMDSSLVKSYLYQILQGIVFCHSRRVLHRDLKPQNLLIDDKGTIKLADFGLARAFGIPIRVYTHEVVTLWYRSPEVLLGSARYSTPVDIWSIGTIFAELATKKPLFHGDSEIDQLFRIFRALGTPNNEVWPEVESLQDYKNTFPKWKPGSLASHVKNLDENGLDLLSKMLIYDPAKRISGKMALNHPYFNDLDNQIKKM
T20 sequence (P20248 whole entry partner): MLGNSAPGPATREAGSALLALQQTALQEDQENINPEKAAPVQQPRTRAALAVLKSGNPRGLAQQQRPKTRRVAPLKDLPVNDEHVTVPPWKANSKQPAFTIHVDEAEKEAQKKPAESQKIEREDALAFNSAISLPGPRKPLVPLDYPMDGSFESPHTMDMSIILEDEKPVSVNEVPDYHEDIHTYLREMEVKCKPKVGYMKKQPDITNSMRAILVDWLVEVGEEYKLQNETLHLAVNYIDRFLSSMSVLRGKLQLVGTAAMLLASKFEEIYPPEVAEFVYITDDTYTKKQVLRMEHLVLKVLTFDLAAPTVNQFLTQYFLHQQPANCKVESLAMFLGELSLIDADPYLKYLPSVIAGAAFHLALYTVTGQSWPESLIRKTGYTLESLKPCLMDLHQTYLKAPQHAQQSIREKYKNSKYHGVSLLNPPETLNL
T5 sequence (Q15569 whole entry): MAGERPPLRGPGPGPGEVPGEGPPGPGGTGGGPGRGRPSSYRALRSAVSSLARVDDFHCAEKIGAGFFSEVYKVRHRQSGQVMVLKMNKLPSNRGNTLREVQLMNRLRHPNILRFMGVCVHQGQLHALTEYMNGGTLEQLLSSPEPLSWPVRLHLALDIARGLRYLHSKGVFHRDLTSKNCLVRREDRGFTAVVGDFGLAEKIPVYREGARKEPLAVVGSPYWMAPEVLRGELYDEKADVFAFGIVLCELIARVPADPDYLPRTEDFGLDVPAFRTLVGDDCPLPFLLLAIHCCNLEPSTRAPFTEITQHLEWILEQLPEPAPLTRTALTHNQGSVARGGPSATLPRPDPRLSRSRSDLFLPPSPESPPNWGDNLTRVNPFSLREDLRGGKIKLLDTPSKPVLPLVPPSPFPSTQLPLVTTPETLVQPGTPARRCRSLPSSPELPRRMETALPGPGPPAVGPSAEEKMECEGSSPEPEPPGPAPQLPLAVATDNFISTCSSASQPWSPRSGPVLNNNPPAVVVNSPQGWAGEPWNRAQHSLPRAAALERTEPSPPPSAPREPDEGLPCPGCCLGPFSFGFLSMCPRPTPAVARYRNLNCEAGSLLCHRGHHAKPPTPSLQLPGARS

Row | Structure (SMILES) | remaining activity at 0.5 µM (MEKK1) [%] | remaining activity at 0.5 µM (ROCK2) [%] | remaining activity at 0.5 µM (TYK2) [%] | remaining activity at 0.5 µM (DAPK2) [%] | remaining activity at 0.5 µM (TESK1) [%] | remaining activity at 0.5 µM (CAMKK2) [%] | remaining activity at 0.5 µM (HCK) [%] | remaining activity at 0.5 µM (NLK) [%] | remaining activity at 0.5 µM (MST2/STK3) [%] | remaining activity at 0.5 µM (MST1/STK4) [%] | remaining activity at 0.5 µM (LOK/STK10) [%] | remaining activity at 0.5 µM (FLT1/VEGFR1) [%] | remaining activity at 0.5 µM (CK1epsilon) [%] | remaining activity at 0.5 µM (PKCg) [%] | remaining activity at 0.5 µM (PDK1/PDPK1) [%] | remaining activity at 0.5 µM (ERBB4/HER4) [%] | remaining activity at 0.5 µM (STK22D/TSSK1) [%] | remaining activity at 0.5 µM (RIPK3) [%] | remaining activity at 0.5 µM (IR) [%] | remaining activity at 0.5 µM (CDK1/cyclin A) [%] | also measured
1 | COc1cc(Nc2ncnc(Nc3cc4c(cn3)NC(=O)C(C)(C)O4)n2)cc(OC)c1OC [MT-SYK-03] | 105 | 91.1 | 71.2 | 98.4 | 94.5 | 97.2 | 26.3 | 94.9 | 105 | 94.2 | 75.7 | 65.4 | 98 | 103 | 85.5 | 79.4 | 49.9 | 108 | 94.4 | 110 | IC50 (HCK; [1]): 53.7 nM; Residual enzymatic activity (FLT1/VEGFR1): did not inhibit; IC50 (STK22D/TSSK1; [1]): 198 nM; remaining activity at 0.5 µM (GCK/MAP4K2): 100%; remaining activity at 0.5 µM (WNK3): 82.4%; remaining activity at 0.5 µM (CK1d): 86.5%; remaining activity at 0.5 µM (SSTK/TSSK6): 103%; remaining activity at 0.5 µM (LYN): 12.5%; IC50 (LYN; [1]): 8.8 nM; inhibition at 0.5 µM (LYN; read-out: Inhibition at 500 nM): > 90%; remaining activity at 0.5 µM (IRR/INSRR): 89%; remaining activity at 0.5 µM (BRAF): 86.7%; remaining activity at 0.5 µM (SGK2): 110%; remaining activity at 0.5 µM (CAMKK1): 102%; remaining activity at 0.5 µM (ERK1): 119%; remaining activity at 0.5 µM (LATS1): 99.4%; remaining activity at 0.5 µM (Aurora B): 78.6%; remaining activity at 0.5 µM (CK1g2): 97.2%; remaining activity at 0.5 µM (GSK3a): 74.2%; remaining activity at 0.5 µM (SNARK/NUAK2): 102%
2 | COc1cc(Nc2ncc(F)c(Nc3ccc4c(n3)NC(=O)C(C)(C)O4)n2)cc(OC)c1OC [R406, reference compound] | 100 | 77.6 | 10.5 | 103 | 85.7 | 88.8 | 15.4 | 107 | 97.9 | 86.3 | 37.4 | 12.4 | 104 | 63.6 | 30.7 | 68.2 | 9.6 | 107 | 77.5 | 74.2 | remaining activity at 0.5 µM (GCK/MAP4K2): 77.5%; remaining activity at 0.5 µM (WNK3): 77.7%; remaining activity at 0.5 µM (CK1d): 78.7%; remaining activity at 0.5 µM (SSTK/TSSK6): 98.7%; remaining activity at 0.5 µM (LYN): 5.7%; remaining activity at 0.5 µM (IRR/INSRR): 73.6%; remaining activity at 0.5 µM (BRAF): 95.9%; remaining activity at 0.5 µM (SGK2): 106%; remaining activity at 0.5 µM (CAMKK1): 91.9%; remaining activity at 0.5 µM (ERK1): 97.4%; remaining activity at 0.5 µM (LATS1): 79.6%; remaining activity at 0.5 µM (Aurora B): 40.2%; remaining activity at 0.5 µM (CK1g2): 101%; remaining activity at 0.5 µM (GSK3a): 27.5%; remaining activity at 0.5 µM (SNARK/NUAK2): 59.7%
